According to patent US9938261B2, “Heterocyclic compounds and methods of use thereof” (AMBIT BIOSCIENCES CORPORATION, priority 2011, dated 2018):

Key:
M-NFS-60 cells = test: M-NFS-60 cell proliferation assay (Alamar Blue); type: cell-based, mouse; conditions: Mus musculus; M-NFS-60 cell proliferation; read-out: CSF1R M-NFS-60 CTB:IC50
Summary of the method: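 Mouse M-NFS-60 cells growing on 20 ng/mL M-CSF in RPMI/10% FBS were exposed to compounds (9 half-log concentrations, 0.5% DMSO) for 72 h at 37 °C. Viability read by Alamar Blue fluorescence (ex 560/em 590 nm, 3 h). IC50 = 50% proliferation inhibition versus control, mean of duplicates.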

[1] = molecular target: kinase panel containing either 386 or 392 distinct kinases; test: Kinase selectivity score S10 from competition binding panel; conditions: 10 μM, panel of 386 or 392 distinct kinases
Summary of the method: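 Compounds at 10 μM competed against immobilised affinity ligands for T7 phage-fused or HEK-293-expressed DNA-tagged kinases, 1 h at room temperature; bound kinase eluted and quantified by qPCR. S10 = fraction of distinct non-mutant kinases with percent of DMSO control below 10.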

KIT = molecular target: T1, KIT (Homo sapiens, UniProt P10721); test: Competition binding assay, KIT Kd; conditions: competition binding
T1 construct: made in house
Summary of the method: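 Phage-fused or HEK-293/DNA-tagged kinase + ligand-coated streptavidin beads + compound, 1 h RT with shaking. Wash, elute with free ligand 30 min RT, qPCR of eluted kinase. Kd: 11-point 3-fold series.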

T1 sequence (P10721 26-976): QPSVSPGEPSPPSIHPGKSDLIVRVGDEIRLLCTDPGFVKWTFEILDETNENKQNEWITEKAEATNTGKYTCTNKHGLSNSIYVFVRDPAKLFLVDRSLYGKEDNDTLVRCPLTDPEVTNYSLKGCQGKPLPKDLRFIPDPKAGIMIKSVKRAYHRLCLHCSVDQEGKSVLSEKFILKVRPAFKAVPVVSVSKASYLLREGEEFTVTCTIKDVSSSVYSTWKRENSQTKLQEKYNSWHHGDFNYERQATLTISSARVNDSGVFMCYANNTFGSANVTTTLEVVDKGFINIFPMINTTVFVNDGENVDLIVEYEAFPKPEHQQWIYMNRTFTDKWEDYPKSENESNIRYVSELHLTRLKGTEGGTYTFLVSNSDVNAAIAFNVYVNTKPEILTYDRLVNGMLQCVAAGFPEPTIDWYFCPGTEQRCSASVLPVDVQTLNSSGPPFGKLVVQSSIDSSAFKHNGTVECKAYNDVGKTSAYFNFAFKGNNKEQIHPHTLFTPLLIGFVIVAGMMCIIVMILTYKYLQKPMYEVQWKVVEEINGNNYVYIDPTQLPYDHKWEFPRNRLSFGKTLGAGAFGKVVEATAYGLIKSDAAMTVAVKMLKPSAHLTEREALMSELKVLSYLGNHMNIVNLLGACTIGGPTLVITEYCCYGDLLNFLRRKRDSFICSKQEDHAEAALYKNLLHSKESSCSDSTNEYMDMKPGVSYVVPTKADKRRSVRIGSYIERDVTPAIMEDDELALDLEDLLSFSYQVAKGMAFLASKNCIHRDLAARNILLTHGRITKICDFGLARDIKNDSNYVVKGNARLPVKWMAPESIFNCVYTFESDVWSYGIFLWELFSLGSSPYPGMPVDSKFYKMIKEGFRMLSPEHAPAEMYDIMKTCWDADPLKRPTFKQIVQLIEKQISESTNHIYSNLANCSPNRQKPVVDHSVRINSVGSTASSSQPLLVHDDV

Structure (SMILES)	Kinase specificity S(10) [1]	Kd (KIT) [nM]	IC50 (M-NFS-60 cells) [nM]
CC(O)c1cnc2c(c1)ncn2Cc1ccc2nc(N[C@@H]3CCCC[C@H]3O)sc2c1 (stereo partly drawn) [Example 115, (1R,2R)-2-((6-((6-((R,S)-1-hydroxyethyl)-3H-imidazo[4,5-b]pyridin-3-yl)methyl)benzo[d]thiazol-2-yl)amino)cyclohexanol]	A (A≤0.01)	500 to 2000	50 to 400
COc1ccc2c(c1)ncn2Cc1ccc2nc(N[C@@H]3CCCC[C@H]3O)oc2c1 [Example 151, (1R,2R)-2-((6-((5-methoxy-1H-benzo[d]imidazol-1-yl)methyl)benzo[d]oxazol-2-yl)amino)cyclohexanol]	B (0.01<B≤0.02)	≤ 100	50 to 400
Oc1ccc2c(c1)ncn2Cc1ccc2nc(N[C@@H]3CCCC[C@H]3O)sc2c1 [Example 147, 1-((2-(((1R,2R)-2-hydroxycyclohexyl)amino)benzo[d]thiazol-6-yl)methyl)-1H-benzo[d]imidazol-5-ol]	A (A≤0.01)	≤ 100	50 to 400
CNC(=O)c1ccc2ncc(Cc3ccc4nc(N[C@@H]5CCCC[C@H]5O)sc4c3)n2n1 [Example 143, 3-((2-(((1R,2R)-2-hydroxycyclohexyl)amino)benzo[d]thiazol-6-yl)methyl)-N-methylimidazo[1,2-b]pyridazine-6-carboxamide]	B (0.01<B≤0.02)	500 to 2000	400 to 1500
O[C@@H]1CCCC[C@H]1Nc1nc2ccc(Cn3cnc4cc(F)cc(F)c43)cc2s1 [Example 148, (1R,2R)-2-((6-((5,7-difluoro-1H-benzo[d]imidazol-1-yl)methyl)benzo[d]thiazol-2-yl)amino)cyclohexanol]	A (A≤0.01)	≤ 100	50 to 400
N#Cc1ccn2c(Cc3ccc4nc(N[C@@H]5CCCC[C@H]5O)sc4c3)cnc2c1 [Example 117, 3-((2-(((1R,2R)-2-hydroxycyclohexyl)amino)benzo[d]thiazol-6-yl)methyl)imidazo[1,2-a]pyridine-7-carbonitrile]	A (A≤0.01)	> 2000	400 to 1500
O[C@@H]1CCCC[C@H]1Nc1nc2ccc(Cn3cnc4cc(F)cnc43)cc2o1 [Example 132, (1R,2R)-2-((6-((6-fluoro-3H-imidazo[4,5-b]pyridin-3-yl)methyl)benzo[d]oxazol-2-yl)amino)cyclohexanol]	C (C>0.02)	≤ 100	50 to 400
Cc1cc2ncn(Cc3ccc4nc(N[C@@H]5CCCC[C@H]5O)sc4c3)c2cc1C [Example 119, (1R,2R)-2-((6-((5,6-dimethyl-1H-benzo[d]imidazol-1-yl)methyl)benzo[d]thiazol-2-yl)amino)cyclohexanol]	A (A≤0.01)	≤ 100	50 to 400
COc1ccc2ncn(Cc3ccc4nc(N[C@@H]5CCCC[C@H]5O)oc4c3)c2c1 [Example 152, (1R,2R)-2-((6-((6-methoxy-1H-benzo[d]imidazol-1-yl)methyl)benzo[d]oxazol-2-yl)amino)cyclohexanol]	B (0.01<B≤0.02)	≤ 100	50 to 400
COc1ccc2ncc(Cc3ccc4nc(N[C@@H]5CCCC[C@H]5O)sc4c3)n2n1 [Example 150, (1R,2R)-2-((6-((6-methoxyimidazo[1,2-b]pyridazin-3-yl)methyl)benzo[d]thiazol-2-yl)amino)cyclohexanol]	B (0.01<B≤0.02)	≤ 100	50 to 400
O[C@@H]1CCCC[C@H]1Nc1nc2ccc(Cn3cnc4cc(-n5cncn5)cnc43)cc2s1 [Example 145, (1R,2R)-2-((6-((6-(1H-1,2,4-triazol-1-yl)-3H-imidazo[4,5-b]pyridin-3-yl)methyl)benzo[d]thiazol-2-yl)amino)cyclohexanol]	A (A≤0.01)	100 to 500	50 to 400

More lines, main results first:

Kinase specificity S(10) [1]	Kd (KIT) [nM]	Structure (SMILES)	IC50 (M-NFS-60 cells) [nM]
A (A≤0.01)	≤ 100	O[C@@H]1[C@H](O)CCC[C@H]1Nc1nc2ccc(Cn3cnc4cc(-n5cncn5)cnc43)cc2s1 [Example 234, (1R,2S,3R)-3-((6-((6-(1H-1,2,4-Triazol-1-yl)-3H-imidazo[4,5-b]pyridin-3-yl)methyl)benzo[d]thiazol-2-yl)amino)cyclohexane-1,2-diol]	50 to 400
A (A≤0.01)	100 to 500	O[C@@H]1CCCC[C@H]1Nc1nc2ccc(Cc3cnc4cc(-n5cccn5)ccn34)cc2s1 [Example 167, (1R,2R)-2-((6-((7-(1H-pyrazol-1-yl)imidazo[1,2-a]pyridin-3-yl)methyl)benzo[d]thiazol-2-yl)amino)cyclohexanol]	≤ 50
B (0.01<B≤0.02)	≤ 100	O[C@@H]1CCCC[C@H]1Nc1nc2ccc(Cn3cnc4cc(-n5ccnc5)ccc43)cc2s1 [Example 226, (1R,2R)-2-((6-((5-(1H-imidazol-1-yl)-1H-benzo[d]imidazol-1-yl)methyl)benzo[d]thiazol-2-yl)amino)cyclohexanol]	≤ 50
B (0.01<B≤0.02)	100 to 500	Fc1cnc2c(c1)ncn2Cc1ccc2nc(N[C@H]3C=CCCC3)sc2c1 [Example 176, (R)—N-(cyclohex-2-en-1-yl)-6-((6-fluoro-3H-imidazo[4,5-b]pyridin-3-yl)methyl)benzo[d]thiazol-2-amine]	400 to 1500
A (A≤0.01)	500 to 2000	O[C@@H]1[C@H](O)CCC[C@H]1Nc1nc2ccc(Cc3cnc4cc(-n5nccn5)ccn34)cc2s1 [Example 231, (1R,2S,3R)-3-((6-((7-(2H-1,2,3-triazol-2-yl)imidazo[1,2-a]pyridin-3-yl)methyl)benzo[d]thiazol-2-yl)amino)cyclohexane-1,2-diol]	≤ 50
A (A≤0.01)	500 to 2000	COCCOc1ccn2c(Cc3ccc4nc(N[C@@H]5CCCC[C@H]5O)sc4c3)cnc2c1 [Example 153, (1R,2R)-2-((6-((7-(2-methoxyethoxy)imidazo[1,2-a]pyridin-3-yl)methyl)benzo[d]thiazol-2-yl)amino)cyclohexanol]	50 to 400
B (0.01<B≤0.02)	100 to 500	OCCOc1ccc2c(c1)ncn2Cc1ccc2nc(N[C@@H]3CCCC[C@H]3O)sc2c1 [Example 172, (1R,2R)-2-((6-((5-(2-hydroxyethoxy)-1H-benzo[d]imidazol-1-yl)methyl)benzo[d]thiazol-2-yl)amino)cyclohexanol]	50 to 400
A (A≤0.01)	100 to 500	O[C@@H]1CCCC[C@H]1Nc1nc2ccc(Cn3cnc4cc(-n5cncn5)ccc43)cc2s1 [Example 161, (1R,2R)-2-((6-((5-(1H-1,2,4-triazol-1-yl)-1H-benzo[d]imidazol-1-yl)methyl)benzo[d]thiazol-2-yl)amino)cyclohexanol]	50 to 400
A (A≤0.01)	500 to 2000	O[C@@H]1CCCC[C@H]1Nc1nc2cc(F)c(Cn3cnc4cccnc43)cc2s1 [Example 154, (1R,2R)-2-((6-((3H-imidazo[4,5-b]pyridin-3-yl)methyl)-5-fluorobenzo[d]thiazol-2-yl)amino)cyclohexanol]	50 to 400
